Laboratory results published in patent US20230392153A1, “SUMO Targeting Morpholinos as both Enhancers of Anti-Cancer Effects of Chemotherapeutic Treatments and Preventative Agents Against the Establishment of Chemoresistance” (Board of Regents, The University of Texas System, priority 2022, published 2023).
{OctaGua} = octa-guanidine dendrimer (vivo-morpholino)

System: mature mRNA transcripts derived from the SUMO2 gene, S2V1 and S2V2
Assay: qRT-PCR quantification of SUMO2 transcript variants (CNE100 ng) in A549 cells treated with vivo-morpholinos
Type: cell-based, human
Details: 4 μM, 24 hours
Experimental: Made to order vivo-morpholinos are readily available and can be procured from Gene Tools, LLC (Philomath, OR) based on specified embodiments of this disclosure, and reconstituted at a final concentration of 400 μM using RNase & DNase-free milli-Q water. The reconstituted vivo-morpholinos were kept in solution at room temperature. To test the vivo-morpholinos, A549 cells were seeded in 6 well plates at a density of 0.5×10^6 cells per well in a final volume of 3 mL per well. The day after cell seeding, the vivo-morpholinos were diluted down to a final concentration of 4 μM and a final volume of 2 mL using 1× Opti-MEM™ I (Thermo Fisher Scientific, Waltham, MA), the plating media was discarded using vacuum suction, and the diluted vivo-morpholinos were immediately added to the cells (2 mL per well). The cells were maintained in the presence of the vivo-morpholinos at 37° C. and 5% CO 2 for another 24 hours and subsequently the cells were collected and processed for RNA isolation. […] RNA quantification was performed using a NanoDrop™ One s Microvolume UV-Vis Spectrophotometer (Thermo Fisher Scientific). Upon quantification, the purified RNA was divided into 9 μL aliquots and stored at −80° C. until used for qRT-PCR. […]
CNE100 ng were calculated using the Cq values obtained in the qRT-PCR reactions indicated above and calibration curves generated using purified RNA produced in vitro corresponding to each of the segments targeted by the primer sets indicated above.
The primer sets used to quantify each of the SUMO2 mature mRNA transcripts are indicated below. […]
The experiments described above were performed four different times. […] In the three subsequent independent experiments, all samples were analyzed in triplicate and the averages were calculated. […]
Referring to FIG. 5, quantitative analysis of the SUMO2 transcript variants present in A549 cells under normal conditions as well as upon a 24 hour treatment with the vivo-morpholinos S2E3Acc and S2E3Don is presented. […]

For “S2E3Don: Vivo-morpholino, SEQ ID NO: 4, 5′ GAGATTTTTTTACCTGTGCAGGTGT 3′; targets SUMO2 exon 3 at the splicing donor site (antisense GAGAUUUUUUUACCUGUGCAGGUGU; all phosphorodiamidate morpholino (PMO), 3' {OctaGua}, T or U not given here)”, the “effect on the proportion of S2V1:S2V2 present in the cell” value was “significative changes”.

For “S2E3Acc: Vivo-morpholino, SEQ ID NO: 3, 5′ CCTCATTGACAATCCCTGAACGAGA 3′; targets SUMO2 exon 3 at the splicing acceptor site (CCUCAUUGACAAUCCCUGAACGAGA; all phosphorodiamidate morpholino (PMO), 3' {OctaGua}, T or U not given here)”, the “effect on the proportion of S2V1:S2V2 present in the cell” value was “significative changes” and the “decrease in the CNE100 ng of S2V1” value (versus normal conditions (untreated)) was about 10 fold.
